This passage reports IC50, IC90 and CC50 results from PubChem BioAssay AID1626 (SRMLSC, 2009).

By IC50 is commonly meant the concentration at which inhibition is half-maximal. The IC90 is the concentration at which the effect reaches the 90% level. The low end stands for greater potency, the high end for weaker potency. As usually defined, the CC50 is the concentration at which the toxic effect on the cells reaches its halfway point. Low values mean greater toxicity to the cells, high ones lower toxicity to the cells.

This assay has as its system M. tuberculosis H37Rv growth inhibition. Nature of the assay: M. tuberculosis H37Rv growth inhibitors, H37Rv strain (AID 1626). Particulars: for IC90: measured here: IC90 against H37Rv; for CC50: measured here: Vero cell cytotoxicity.

Regarding `c1ccc(CCCN2CCN(CCOC(c3ccccc3)c3ccccc3)CC2)cc1`, the IC50 was 5.22 µM, the concentration for an effect of 90% (IC90) was 5.82 µM and the CC50 was more than 40 µM.
As to `Fc1ccc(-c2nnc(CSc3nnc(-c4cccs4)o3)o2)cc1`, the IC90 was more than 100 µM.
Consider `O=C(CNCc1ccco1)Nc1ccc(Oc2ccccc2)cc1`, for which the IC90 was more than 100 µM and the CC50 is more than 40 µM.
As for `c1ccc(-c2nc(N3CCCCCC3)nc(-n3ccnc3)n2)cc1`, the IC50 is 0.253 µM, the IC90 stood at 1.9 µM and the CC50 came to 30 µM.
On the same counts, the results for `O=C(NC(Nc1nc2ccc([N+](=O)[O-])cc2s1)(C(F)(F)F)C(F)(F)F)c1ccccc1Cl` are 2.17 µM, 4.17 µM and 1 µM.
On the same counts, the results for `OC(CN1CCN(Cc2ccccc2)CC1)Cn1c2ccccc2c2ccccc21` (configuration not stated) are 16.5 µM, 22.9 µM and more than 40 µM.
For the compound `CCn1c(NC(=O)c2ccccc2)nc2ccccc21`, the IC50 was 1.71 µM, the IC90 was 8.64 µM and the CC50 was more than 40 µM.
The compound `Cc1ccc(CN2CCSc3ccc(C(=O)NC4CCN(Cc5ccccc5)CC4)cc32)cc1` had a CC50 of 18.4 µM.
For the compound `Cc1ccc2nc(N(CCCN(C)C)C(=O)c3ccc4c(c3)CCCC4)sc2c1`, the half-maximal inhibitory concentration (IC50) was 8.72 µM, the IC90 is 11.8 µM and the CC50 stood at 22.6 µM.
With `CCCCCC(=O)Nc1ccc2ccccc2c1`, the IC50 was less than 0.195 µM and the IC90 is more than 100 µM.
The corresponding values for `CCc1cc2cc(C(=O)Nc3ccc(C)cc3)sc2s1` are 1.34 µM and 1.81 µM.
The compound `N#C/C(=C(/O)CSc1nnc(Cc2cccs2)n1C1CCCCC1)c1nc2ccccc2[nH]1` had an IC90 of more than 100 µM.
Still for that read-out and setting: with `CCCCOC(=O)Nc1ccc(C)c(Cl)c1` the figure was more than 100 µM.
For the compound `COc1cccc(-c2nnc(NC(=O)c3ccccc3Br)o2)c1`, the IC50 is 3.79 µM, the IC90 was 9.35 µM and the cytotoxic concentration (CC50) is more than 40 µM.
With `COc1ccc(OC(=O)CCc2c[nH]c3ccccc23)cc1`, the IC50 is 18.2 µM and the IC90 was more than 100 µM.
For `CCOC(=O)c1ccc(NC(=O)c2n[nH]c(=O)c3ccccc23)cc1`, the IC90 is more than 100 µM.
Turning to `CCOc1ccccc1/C=C/C(=O)c1ccc(Cl)cc1`, the IC50 was 24.3 µM, the IC90 was 34.2 µM and the CC50 is more than 40 µM.
For `O=C(Nc1nc2ccccc2n1CCN1CCOCC1)c1ccc(Cl)cc1`, the IC50 was 26.5 µM, the IC90 is more than 100 µM and the CC50 was more than 40 µM.
In the case of `CCCCOc1ccc(NC(=O)CSc2nnnn2C)cc1`, the IC50 is 34 µM and the IC90 was more than 100 µM.
For the compound `OC(CNCC(c1ccc(Cl)cc1Cl)c1c[nH]c2ccccc12)c1ccccc1` (configuration not stated), the IC50 is 6.68 µM, the IC90 was 10.3 µM and the CC50 came out at 11.2 µM.
The corresponding values for `CC(=O)Nc1nnc(-c2ccc3c(c2)CCCC3)o1` are 11.9 µM, 23 µM and more than 40 µM.
The corresponding values for `Cc1ccc(-n2c(-c3ccc(Br)cc3)c[n+]3c2CCc2ccc4cccnc4c2-3)cc1` are 0.76 µM, 1.07 µM and 5.51 µM.
The corresponding values for `COc1ccc2c(c1)sc(=N)n2C` are 8.91 µM, 11.7 µM and more than 40 µM.
With `Cc1cc(NC(=O)c2cc(-c3ccncc3)nc3c(C)cccc23)no1`, the IC50 is 48.1 µM, the IC90 was 74.3 µM and the CC50 worked out at 12.9 µM.
Take `Cc1ccc(CSc2nnc(CCCCCNC(=O)OC(C)(C)C)o2)cc1`: the IC50 is 11.7 µM and the IC90 was determined as 13.6 µM.
With `CC1Cc2ccccc2N1C(=O)COC(=O)c1ccc(Br)o1` (configuration not stated), the IC50 is 16 µM and the 90% effect concentration (IC90) was more than 100 µM.
On the same counts, the results for `CCc1ccc(CCC(=O)Nc2ccc(OC)cc2)o1` are 35.9 µM and more than 100 µM.
`O=C(COC(=O)Cc1ccccc1F)Nc1ccc2c(c1)OCO2` came in with an IC90 of more than 100 µM.
Take `Fc1ccc(C(OCCN2CCN(CCCc3ccccc3)CC2)c2ccc(F)cc2)cc1`: the IC50 was 4.22 µM, the IC90 was 5.59 µM and the CC50 came to 19.2 µM.
Consider `Cc1ccccc1-n1c(O)c(C=Nc2ccc3c(c2)OCO3)c(=O)[nH]c1=O`, for which the IC90 is more than 100 µM.
Turning to `CCC(C)Nc1nc2c(C)cccn2c(=O)c1C=Nc1ccc(OC)cc1` (configuration not stated), the IC50 is 52.4 µM and the IC90 was more than 100 µM.
The corresponding values for `Cc1ccc(-c2nc3c(cnn3-c3ccccc3)c(=O)o2)cc1` are 6.21 µM and 13.4 µM.
For `COc1ccc(/C=C/c2cc(-c3ccc(C)cc3)o[n+]2C)cc1`, the IC50 was 3.21 µM, the IC90 was 7.34 µM and the CC50 was more than 40 µM.
On the same counts, the results for `CCOC(=O)CSc1ccc(-c2nc3ccccc3[nH]2)cn1` are 2.98 µM, 5.54 µM and more than 40 µM.
Consider `CCN(CC)CCOC(=O)c1ccc(N/C=C(/C#N)c2nc(-c3ccc4c(c3)OCO4)cs2)cc1`, for which the IC50 is 13.5 µM, the IC90 was 22.6 µM and the CC50 was determined as 7.2 µM.
On to `O=C(Nc1nnc(-c2ccncc2)o1)c1ccc(Br)s1`, for which the IC50 was 15 µM, the IC90 is 29.7 µM and the CC50 amounted to 20.6 µM.
For `Cc1cccc(C=Nc2ccc3c(c2)oc2ccccc23)c1O`, the IC50 is 1.11 µM and the IC90 is more than 100 µM.
On to `CC(=O)c1cccc(NC(=O)/C=C/c2ccc([N+](=O)[O-])s2)c1`, for which the IC50 was 6.51 µM, the IC90 was 57.4 µM and the CC50 is more than 40 µM.
On the same counts, the results for `C=C1C(=O)O[C@@H]2C[C@@H](C)[C@@H]3C=CC(=O)[C@@]3(C)[C@@H](OC(=O)CC(=O)O[C@H]3[C@@H]4C(=C)C(=O)O[C@@H]4C[C@@H](C)[C@@H]4C=CC(=O)[C@]43C)[C@H]12` are 1.47 µM, 3.35 µM and 1.4 µM.
On the same counts, the results for `O=C(/C=C/c1ccc(OCCCF)cc1)Nc1ccnc(-c2ccncc2)n1` are 84.1 µM, more than 100 µM and more than 40 µM.
`CC(=O)Nc1ccc(Nc2cc(C)nc3c(-c4ccccc4)c(C)nn23)cc1` displayed a 90% effect concentration (IC90) of more than 100 µM and a CC50 of more than 40 µM.
Consider `Cc1cc(Nc2ccccc2)nc(NCc2ccccc2)n1`, for which the IC50 is 10.9 µM, the IC90 worked out at 14.4 µM and the CC50 is 23.3 µM.
`CCCOC(=O)CSc1nc(N)c(C#N)c(-c2ccco2)c1C#N`: the IC50 is less than 0.195 µM and the IC90 came to 0.907 µM.
For `Cc1ccc(NC(=O)N2CCC(c3nc4c(nnn4Cc4cccc(Cl)c4)c(=O)[nH]3)CC2)cc1`, the half-maximal inhibitory concentration (IC50) was 5.13 µM and the IC90 is 6.62 µM.
As for `O=c1[nH]c2ccccc2n1CCCN1CCN(C(c2ccccc2)c2ccccc2)CC1`, the IC50 was 17.1 µM, the IC90 was 25.3 µM and the CC50 was more than 40 µM.
As for `CCCCCC(=O)c1ccc(O)cc1O`, the IC50 was 63.3 µM and the IC90 was more than 100 µM.
In the case of `CCN(CC)CCOC(=O)c1ccc(N/C=C(/C#N)c2nc(-c3ccc(OC)c(OC)c3)cs2)cc1`, the IC50 is 4.16 µM, the IC90 is 22.1 µM and the CC50 was more than 40 µM.
